Experimental findings from patent US20260109709A1 (MIRATI THERAPEUTICS, INC., priority 2021, published 2026) are described below.

Where a name gives a salt, the structure may show the parent alone. Read-outs that look alike come from different tables or passages of the source.

One assay deals with T1, PRMT5-MEP50 (Homo sapiens, UniProt O14744).
T1 construct: biotin (in vivo biotinylated)
Description: SPR binding assay (PRMT5.MTA and PRMT5·SAM surfaces). The conditions noted are these: steady-state fit. The protocol:
In vivo biotinylated PRMT5-MEP50 was diluted to […] in 25 mM Bicine pH 7.6, 100 mM NaCl, 1 mM TCEP, and 0.05% Tween-20 and injected at 5 μl/min flow rate into flow cell 2 (FC2) of a Series S Sensor Chip SA (Cytiva) in a Biacore T200 or in a Biacore 8K plus (Cytiva). SPR screening was performed in MTA running buffer (25 mM Bicine pH 7.6, 100 mM NaCl, 1 mM TCEP, 20 µM MTA, 0.05% Tween-20 and 2% DMSO). The biotinylated PRMT5-MEP50 surface was equilibrated with MTA running buffer for 12 hours prior to the start. […] Subsequently, compound titration was repeated in SAM-running buffer (25 mM Bicine pH 7.6, 100 mM NaCl, 1 mM TCEP, 20 μM SAM, 0.05% Tween-20, and 2% DMSO). […] After double referencing, the steady-state response was extracted for each fragment concentration and was fit to the Langmuir isotherm equation to determine the equilibrium dissociation constant (KD).

In another assay the target is T2, PRMT5/MEP50 complex (Homo sapiens, UniProt O14744).
T2 construct: purchased Reaction Biology Corporation
T2 sequence (O14744 2-637 limits assumed): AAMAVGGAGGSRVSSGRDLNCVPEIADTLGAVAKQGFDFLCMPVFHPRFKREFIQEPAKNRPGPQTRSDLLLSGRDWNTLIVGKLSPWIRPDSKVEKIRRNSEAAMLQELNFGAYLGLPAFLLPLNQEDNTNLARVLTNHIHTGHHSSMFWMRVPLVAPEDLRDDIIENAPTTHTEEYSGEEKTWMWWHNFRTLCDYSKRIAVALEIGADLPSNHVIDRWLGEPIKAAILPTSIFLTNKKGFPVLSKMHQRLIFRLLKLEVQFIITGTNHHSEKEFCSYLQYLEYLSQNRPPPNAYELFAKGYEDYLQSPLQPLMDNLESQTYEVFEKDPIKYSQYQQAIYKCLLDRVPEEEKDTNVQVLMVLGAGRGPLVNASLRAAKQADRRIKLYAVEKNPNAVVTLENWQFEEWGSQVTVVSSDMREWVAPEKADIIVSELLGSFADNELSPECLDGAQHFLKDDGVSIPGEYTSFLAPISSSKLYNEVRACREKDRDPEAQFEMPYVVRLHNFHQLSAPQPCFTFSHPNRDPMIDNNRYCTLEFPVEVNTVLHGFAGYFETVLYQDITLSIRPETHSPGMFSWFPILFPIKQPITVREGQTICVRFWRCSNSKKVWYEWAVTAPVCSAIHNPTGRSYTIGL
T2 sequence (Q9BQA1 2-342 partner limits assumed): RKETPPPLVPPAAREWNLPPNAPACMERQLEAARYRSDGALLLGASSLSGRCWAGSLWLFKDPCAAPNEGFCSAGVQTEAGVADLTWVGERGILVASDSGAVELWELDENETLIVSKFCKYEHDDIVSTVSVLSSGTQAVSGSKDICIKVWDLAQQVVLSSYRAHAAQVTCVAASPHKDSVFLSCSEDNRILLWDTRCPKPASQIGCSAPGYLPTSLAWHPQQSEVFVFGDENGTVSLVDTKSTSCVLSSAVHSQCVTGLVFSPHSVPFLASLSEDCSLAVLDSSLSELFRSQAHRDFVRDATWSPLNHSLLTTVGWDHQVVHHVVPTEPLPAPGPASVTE
Description: PRMT5:MEP50 FlashPlate Assay (histone H4 peptide methylation). The assay is classed as biochemical. The conditions noted are these: 40 nM H4 (1-15) peptide, 1 μM SAM. On the procedure: The PRMT5 inhibitory activity of compounds of the present invention was determined using a PRMT5: MEP50 FlashPlate Assay and a PRMT5: MEP50 HotSpot Assay (Reaction Biology Corporation).
The assay uses purified human, PRMT5 enzyme to convert S-adenosyl-L-[methyl-3H]methionine plus histone H4 L-arginine to S-adenosyl-L-homocysteine plus histone H4 [methyl-3H]-L-arginine. The assay was carried out using Streptavidin-coated FlashPlates (Perkin Elmer), which contained a scintillant embedded in the plastic of the plate. The histone H4 peptide substrate was conjugated with biotin, which binds to the streptavidin-coated well of the plate, placing the H4 peptide in close proximity to the side well and the scintillant. The transfer of the tritiated methyl group from S-adenosyl-L-[methyl-3H]methionine to the bound histone H4 peptide generated a radiolabeled histone H4, which was quantitated by measuring in a scintillation counter to determine the activity of PRMT5 enzyme in the presence and absence of compound. […] Briefly, compounds of the present invention were solubilized in 100% DMSO at a highest concentration of 10 mM. […] Control samples lacking compound, PRMT5/MEP50 complex or various reaction components also were prepared and processed in parallel with compound test samples. SAH was used as a positive control for assay validation. To measure PRMT5 inhibitory activity, 3 nM PRMT5/MEP50 complex (Reaction Biology Corporation) was preincubated with test compound in assay buffer containing 40 nM histone H4 peptide (amino acids 1-15)-Biotin conjugate for 20 min at room temperature. The enzymatic reaction was initiated by adding 1 μM tritiated S-adenosyl methionine (final concentration) and the reaction is allowed to proceed for 20 min. The reaction was stopped and the amount of bound, tritiated H4 peptide in each sample was determined using a scintillation counter.

Setting [1] is: PRMT5.MTA surface, MTA running buffer (20 µM MTA), read-out: KD MTA.
Setting [2] is: PRMT5·SAM surface, SAM running buffer (20 μM SAM), read-out: KD SAM.

T1 sequence (O14744 whole entry): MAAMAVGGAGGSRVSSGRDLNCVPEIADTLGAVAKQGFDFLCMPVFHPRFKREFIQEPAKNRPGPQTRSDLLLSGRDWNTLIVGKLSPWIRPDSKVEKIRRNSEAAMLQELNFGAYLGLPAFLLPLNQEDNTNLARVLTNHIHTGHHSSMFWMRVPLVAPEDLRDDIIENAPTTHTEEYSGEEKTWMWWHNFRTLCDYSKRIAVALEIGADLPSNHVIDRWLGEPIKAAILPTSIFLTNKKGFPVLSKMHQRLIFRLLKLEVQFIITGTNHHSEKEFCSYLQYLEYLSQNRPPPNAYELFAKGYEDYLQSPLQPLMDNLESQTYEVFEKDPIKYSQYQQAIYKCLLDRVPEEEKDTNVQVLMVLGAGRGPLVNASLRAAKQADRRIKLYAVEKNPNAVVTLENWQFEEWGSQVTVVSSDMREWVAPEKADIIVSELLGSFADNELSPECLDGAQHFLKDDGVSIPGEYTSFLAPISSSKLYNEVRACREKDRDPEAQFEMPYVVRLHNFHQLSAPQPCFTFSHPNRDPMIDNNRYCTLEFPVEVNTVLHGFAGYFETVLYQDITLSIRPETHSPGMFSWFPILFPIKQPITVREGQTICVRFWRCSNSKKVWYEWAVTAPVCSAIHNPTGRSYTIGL
T1 sequence (Q9BQA1 whole entry partner): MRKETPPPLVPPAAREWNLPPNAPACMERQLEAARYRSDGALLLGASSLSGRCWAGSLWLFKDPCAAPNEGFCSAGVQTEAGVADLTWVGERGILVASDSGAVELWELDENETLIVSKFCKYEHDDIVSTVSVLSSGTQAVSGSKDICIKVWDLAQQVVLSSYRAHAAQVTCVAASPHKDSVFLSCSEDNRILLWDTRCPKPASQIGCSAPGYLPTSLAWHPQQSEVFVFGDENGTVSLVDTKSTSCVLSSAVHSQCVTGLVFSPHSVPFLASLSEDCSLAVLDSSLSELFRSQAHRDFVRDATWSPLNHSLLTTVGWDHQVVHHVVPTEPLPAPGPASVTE

The term Kd denotes the equilibrium constant for the complex coming apart. The IC50 is the concentration that gives 50% inhibition. Regarding `Cn1ncc(-c2cccc3c2nc(N)n3C)c1-c1ccccc1C#N` [Example 1-87, 2-(4-(2-amino-1-methyl-1H-benzo[d]imidazol-4-yl)-1-methyl-1H-pyrazol-5-yl)benzonitrile hydrochloride], the values for the dissociation constant Kd on PRMT5-MEP50 (setting [1]) and at PRMT5-MEP50 (setting [2]) were 0.512 µM and 1.67 µM, respectively. The IC50 on PRMT5/MEP50 complex (IC50 + 2 μM MTA, plus 2 μM MTA) is 17.9 µM; at PRMT5/MEP50 complex (absence of MTA, read-out: IC50), above 300 µM.
Taken in the same sequence, the figures for `Cn1c(N)nc2cc(Cc3ccc4ccncc4c3)cc(C#N)c21` [Example 3-9, 2-amino-6-(7-isoquinolylmethyl)-3-methyl-benzimidazole-4-carbonitrile] were 0.879 µM, 3.67 µM, 16.9 µM and 219 µM.
For `Cn1nccc1-c1ccc2c(c1)nc(N)n2C` [Example 1-56, 1-methyl-5-(1-methyl-1H-pyrazol-5-yl)-1H-benzo[d]imidazol-2-amine], the dissociation constant Kd at PRMT5-MEP50 (setting [1]) is 24.5 µM; at PRMT5-MEP50 (setting [2]) it was 51.9 µM. Besides, the concentration for half-maximal inhibition (IC50) on PRMT5/MEP50 complex (IC50 + 2 μM MTA, plus 2 μM MTA) is above 300 µM.
